In patent publication US20090269394A1, “METHODS AND COMPOSITIONS FOR TREATING ONCHOMYCOSIS” (priority 2008, published 2009):
In brackets after ≈: the same amount, converted by molar mass. Read-outs that look alike come from different tables or passages of the source.

Legend:
[1] = test system: Trichophyton mentagrophytes; assay: MIC/MFC microtiter broth dilution; format: cell-based
Epidermophyton floccosum [2] = assay: MIC/MFC microtiter broth dilution; format: cell-based; settings: n = 6 isolates; NB-002 as μg CPC/ml
Trichophyton tonsurans = assay: MIC/MFC microtiter broth dilution; format: cell-based
Microsporum canis = assay: MIC/MFC microtiter broth dilution; format: cell-based
[3] = test system: Candida albicans isolates; assay: MIC/MFC microtiter broth dilution; format: cell-based; settings: NB-002 as μg CPC/ml; for MIC90: Candida albicans, read-out: MIC90
T. violaceum = assay: MIC against species that cause tinea capitis; format: cell-based; settings: T. violaceum n = 10
M. audouinii = assay: MIC against species that cause tinea capitis; format: cell-based; settings: M. audouinii n = 10
Acremonium spp. = assay: MIC against rare onychomycosis pathogens (CLSI M 38-A); format: cell-based; settings: 5 isolates; NB-002 as μg CPC/ml
Source text: (§1) Methods: All fungi were from patients, many of which had onychomycosis or another tinea infection.

Alternaria spp. = assay: as above; format: cell-based; settings: 3 isolates; NB-002 as μg CPC/ml
Source text: as §1

Aspergillus spp. = assay: as above; format: cell-based; settings: 5 isolates; NB-002 as μg CPC/ml
Source text: as §1

Chaetomium spp. = assay: as above; format: cell-based; settings: 3 isolates; NB-002 as μg CPC/ml
Source text: as §1

Curvularia spp. = assay: as above; format: cell-based; settings: 3 isolates; NB-002 as μg CPC/ml
Source text: as §1

Epicoccum nigrum = assay: as above; format: cell-based; settings: 3 isolates; NB-002 as μg CPC/ml
Source text: as §1

Paecilomyces spp. = assay: as above; format: cell-based; settings: 4 isolates; NB-002 as μg CPC/ml
Source text: as §1

Phoma sp. = assay: as above; format: cell-based; settings: 3 isolates; NB-002 as μg CPC/ml
Source text: as §1

Scedosporium spp. = assay: as above; format: cell-based; settings: 5 isolates; NB-002 as μg CPC/ml
Source text: as §1

Trichophyton soundanense = assay: as above; format: cell-based; settings: 3 isolates; NB-002 as μg CPC/ml
Source text: as §1

Trichophyton verrucosum = assay: as above; format: cell-based; settings: 3 isolates; NB-002 as μg CPC/ml
Source text: as §1

Epidermophyton floccosum [4] = assay: microbe, parasite or virus in culture; format: cell-based; settings: read-out: Final MIC
Procedure: (§2) Phenotypically resistant isolates were tested for MICs and compared to parental MICs.

[5] = test system: Trichophyton mentagrophytes; assay: microbe, parasite or virus in culture; format: cell-based
Procedure: as §2

Trichophyton rubrum [6] = assay: microbe, parasite or virus in culture; format: cell-based
Procedure: as §2

T. rubrum = assay: Time-kill experiments on mycelia and microconidia; format: cell-based, Trichophyton rubrum; settings: 16×MIC, up to 24 hours, nongrowth conditions (FIG. 10)
Procedure: Time-kill experiments. […] Part of the conidial suspension was pelleted and resuspended in RPMI 1640 medium and grown for 16-18 hours overnight at room temperature to allow germination of microconidia. After germination, the hyphae were collected by centrifugation and resuspended in distilled water. […] Colony-forming units were counted after four days of incubation at 35° C.

[7] = test system: Trichophyton mentagrophytes; format: cell-based; settings: 10^7 conidia plated; NBD012-d; drug plate 0.0625 μg/ml
Trichophyton rubrum [8] = format: cell-based; settings: 10^7 conidia plated; NBD031-c; drug plate 0.125 μg/ml
[9] = n = 14 isolates, NB-002 as μg CPC/ml
[10] = T. tonsurans (n = 6), NB-002 as μg CPC/ml
[11] = T. tonsurans n = 10 (tinea capitis species)
[12] = M. canis (n = 5), NB-002 as μg CPC/ml
[13] = M. canis n = 10 (tinea capitis species)
[14] = Azole-Resistant isolates (n = 24)
[15] = Azole-Susceptible isolates (n = 10)

## CN(C/C=C/C#CC(C)(C)C)Cc1cccc2ccccc12 [Terbinafine]
[1]; Trichophyton mentagrophytes
  MIC90: 0.125 µg/mL (≈ 0.429 µM)
[1]; Trichophyton mentagrophytes, read-out: MIC50
  MIC50: 0.0313 µg/mL (≈ 0.107 µM)
[1]; [9]
  MFC50: 0.25 µg/mL (≈ 0.858 µM)
  MFC90: >1 µg/mL
  MIC range: 0.0313 to 0.25 µg/mL
Epidermophyton floccosum [2]
  MFC Range: 0.0313 to 1 µg/mL
  MIC range: 0.0625 to 0.25 µg/mL
Trichophyton tonsurans; [10]
  MFC Range: 0.06 to 0.12 µg/mL
  MIC range: 0.008 to 0.015 µg/mL
Trichophyton tonsurans; [11]
  MIC50: 0.016 µg/mL (≈ 0.0549 µM)
  MIC90: 0.016 µg/mL (≈ 0.0549 µM)
Trichophyton tonsurans; T. tonsurans n = 10 (tinea capitis species), in µg/mL
  MIC range: 0.008-0.016
Microsporum canis; [12]
  MFC Range: 0.06 to 0.12 µg/mL
  MIC range: 0.004 to 0.03 µg/mL
Microsporum canis; [13]
  MIC50: 0.06 µg/mL (≈ 0.206 µM)
  MIC90: 0.06 µg/mL (≈ 0.206 µM)
Microsporum canis; M. canis n = 10 (tinea capitis species), in µg/mL
  MIC range: 0.06
[3]; [14]
  MFC90: >1 µg/mL
  MIC90: > 1 µg/mL
[3]; [15]
  MFC90: >1 µg/mL
  MIC90: > 1 µg/mL
T. violaceum
  MIC50: 0.03 µg/mL (≈ 0.103 µM)
  MIC90: 0.03 µg/mL (≈ 0.103 µM)
T. violaceum; in µg/mL
  MIC range: 0.008-0.03
M. audouinii
  MIC50: 0.06 µg/mL (≈ 0.206 µM)
  MIC90: 0.06 µg/mL (≈ 0.206 µM)
M. audouinii; in µg/mL
  MIC range: 0.03-0.06
Acremonium spp.
  MIC range: 0.125 to 1 µg/mL
Alternaria spp.
  MIC range: 1 to 2 µg/mL
Aspergillus spp.
  MIC range: 0.03 to 0.25 µg/mL
Chaetomium spp.
  MIC range: 1 to 2 µg/mL
Curvularia spp.
  MIC range: 0.03 to 1 µg/mL
Epicoccum nigrum
  MIC range: 0.03 to 0.06 µg/mL
Paecilomyces spp.
  MIC range: 0.25 to 0.5 µg/mL
Phoma sp.
  MIC range: 0.03 µg/mL (≈ 0.103 µM)
Scedosporium spp.
  MIC range: >2 µg/mL
Trichophyton soundanense
  MIC range: ≦0.004 ug/ml
Trichophyton verrucosum
  MIC range: ≦0.004-0.015 ug/ml
Epidermophyton floccosum [4]
  MIC: 0.016 µg/mL (≈ 0.0549 µM)
[5]; read-out: Final MIC, isolate NBD012-a, selected on NB-002 drug plate 8 μg/ml
  MIC: 0.031 µg/mL (≈ 0.106 µM)
[5]; read-out: Final MIC, isolate NBD012-b, selected on NB-002 drug plate 16 μg/ml
  MIC: 0.031 µg/mL (≈ 0.106 µM)
[5]; read-out: Final MIC, isolate NBD012-c, selected on NB-002 drug plate 32 μg/ml
  MIC: 0.016 µg/mL (≈ 0.0549 µM)
[5]; read-out: Final MIC, isolate NBD012-d, selected on terbinafine drug plate 0.0625 μg/ml
  MIC: 0.031 µg/mL (≈ 0.106 µM)
[5]; read-out: Final MIC, isolate NBD013-a, selected on itraconazole drug plate […]
  MIC: 0.016 µg/mL (≈ 0.0549 µM)
[5]; read-out: Final MIC, isolate NBD014-a, selected on NB-002 drug plate 32 μg/ml
  MIC: 0.016 µg/mL (≈ 0.0549 µM)
Trichophyton rubrum [6]; read-out: Final MIC, isolate NBD031-a, selected on NB-002 drug plate 16 μg/ml
  MIC: 0.016 µg/mL (≈ 0.0549 µM)
Trichophyton rubrum [6]; read-out: Final MIC, isolate NBD031-b, selected on itraconazole drug plate 0.125 μg/ml
  MIC: 0.016 µg/mL (≈ 0.0549 µM)
Trichophyton rubrum [6]; read-out: Final MIC, isolate NBD031-c, selected on terbinafine drug plate 0.125 μg/ml
  MIC: 0.016 µg/mL (≈ 0.0549 µM)
T. rubrum
  reduction of colony counts / activity on mycelia and microconidia: no activity
[7]
  # CFU recovered: 2
Trichophyton rubrum [8]
  # CFU recovered: 1
